Reference: patent publication US20120065179A1, “PRODRUG COMPRISING BETA-KETO CARBOXYLIC ACID, BETA-KETO CARBOXYLIC ACID SALT OR BETA-KETO CARBOXYLIC ACID ESTER FOR DRUG DELIVERY” (YKI, Ytemiska Institutet AB, priority 2009, published 2012)
Where two headings read alike, the source gives them in different places. Marks after values point to notes of the source that are not given here.

How the values were obtained:
[1] = pH 7
[2] = Storage stability of benzoylacetate salts and their corresponding acid (HPLC or gravimetric); type: physicochemical; details: for % relative to initial sample amount (by HPLC): stored in freezer (ca −18° C.)
Method: (§1) A 0.2 M solution of ethyl benzoyl acetate (90%, Sigma Aldrich) in 0.5 M NaOH (aq) was prepared at room temperature and stirred for typically 5-24 hours, still at room temperature. After this time a major part of the ethyl benzoyl acetate had been transformed into dissolved sodium benzoyl acetate, as evidenced by monitoring the reaction by analysis of samples by reversed phase HPLC. Some acetophenone and remaining ethyl benzoyl acetate were typically present in the samples, but in minor amounts. The method employed a C8 column with an inner diameter of 150×4.6 mm and 5 micron particles. The mobile phase consisted of 400 ml deionized water+600 ml acetonitrile+0.196 g H3PO4 (85%)+2.760 g NaH2PO4*H2O. The flow rate was set to 1.0 mL/min and UV detection at 254 nm was employed for analysis of the compounds ethylbenzoylacetate (precursor), benzoylacetate (model prodrug) and acetophenone (model drug).
The storage stability of the sodium and calcium salts of benzoylacetate, and of benzoylacetic acid, in solid form, and in aqueous solutions, was investigated by storage of samples under various conditions (see Table 3a above) with regular HPLC- or gravimetric measurements of the samples from time to time. Samples denoted “neutralized” were prepared from a solution prepared as described in Example 1, which was neutralized with diluted HCl after performing the steps in Example 1.
From the data it can be concluded that the best storage stability at room temperature is obtained by storage in the form of the calcium salt.

[3] = Sustained release of acetophenone in vitro in model blood electrolyte solution at 37° C.; type: physicochemical; details: for Concentration of sodium benzoyl acetate model prodrug in sample: model blood electrolyte solution pH 7.4
Method: as §1
Ethyl benzoyl acetate was saponified according to the description in Example 1, and after 7 hours a solution containing about 0.2 M of the sodium salt of benzoyl acetate was obtained.

- Solubility [1]: ≧200 mM
- % relative to sample amount remaining after 2 days (by HPLC) ([2]; Alkaline solution of Na-benzoyl acetate from Example 1, stored at room T, storage time 2 days): 100.0%
- % relative to sample amount remaining after 2 days (by HPLC) ([2]; Alkaline solution of Na-benzoyl acetate from Example 1, stored at room T, storage time 8 days): 66.2%
- % relative to sample amount remaining after 2 days (by HPLC) ([2]; Alkaline solution of Na-benzoyl acetate from Example 1, stored at room T, storage time 23 days): 10.0%
- % relative to sample amount remaining after 2 days (by HPLC) ([2]; Neutralized solution of Na-benzoyl acetate from Example 1 (pH 7.1), at room T, storage time 2 days): 100.0%
- % relative to sample amount remaining after 2 days (by HPLC) ([2]; Neutralized solution of Na-benzoyl acetate from Example 1 (pH 7.1), at room T, storage time 8 days): 52.0%
- % relative to sample amount remaining after 2 days (by HPLC) ([2]; Neutralized solution of Na-benzoyl acetate from Example 1 (pH 7.1), at room T, storage time 23 days): 8.9%
- % relative to sample amount remaining after 2 days (by HPLC) ([2]; Solid Na-salt, neutralized, 30-50% RH at room T, storage time 2 days): 100.0%
- % relative to sample amount remaining after 2 days (by HPLC) ([2]; Solid Na-salt, neutralized, 30-50% RH at room T, storage time 8 days): 84.8%
- % relative to sample amount remaining after 2 days (by HPLC) ([2]; Solid Na-salt, neutralized, 30-50% RH at room T, storage time 23 days): 33.4%
- % of absolute amount expected to be present in sample (by HPLC) ([2]; Solid Na-salt, neutralized, 30-50% RH at room T, storage time 185 days): 1.3*** %
- % of absolute amount expected to be present in sample (by HPLC) ([2]; Solid Na-salt, neutralized, stored at 6° C., storage time 0 days): 103.1%
- % of absolute amount expected to be present in sample (by HPLC) ([2]; Solid Na-salt, neutralized, stored at 6° C., storage time 2 days): 112.6%
- % of absolute amount expected to be present in sample (by HPLC) ([2]; Solid Na-salt, neutralized, stored at 6° C., storage time 5 days): 109.2%
- % of absolute amount expected to be present in sample (by HPLC) ([2]; Solid Na-salt, neutralized, stored at 6° C., storage time 8 days): 102.0%
- % of absolute amount expected to be present in sample (by HPLC) ([2]; Solid Na-salt, neutralized, stored at 6° C., storage time 12 days): 100.7%
- % of absolute amount expected to be present in sample (by HPLC) ([2]; Solid Na-salt, neutralized, stored at 6° C., storage time 16 days): 98.5%
- % of absolute amount expected to be present in sample (by HPLC) ([2]; Solid Na-salt, neutralized, stored at 6° C., storage time 21 days): 81.9%
- % of absolute amount expected to be present in sample (by HPLC) ([2]; Solid Na-salt, neutralized, stored at 6° C., storage time 37 days): 74.6%
- % of absolute amount expected to be present in sample (by HPLC) ([2]; Solid Na-salt, neutralized, stored at 6° C., storage time 49 days): 72.3%
- % of absolute amount expected to be present in sample (by HPLC) ([2]; Solid Na-salt, neutralized, stored at 60° C., storage time 0.02 days): 77.2%
- % of absolute amount expected to be present in sample (by HPLC) ([2]; Solid Na-salt, neutralized, stored at 60° C., storage time 0.8 days): 10.7%
- % of absolute amount expected to be present in sample (by HPLC) ([2]; Solid Na-salt, neutralized, stored at 60° C., storage time 9.1 days): 3.6%
- % relative to initial sample amount (by HPLC) ([2]; Solid Na-salt, neutralized, storage time 0 days): 100%
- % relative to initial sample amount (by HPLC) ([2]; Solid Na-salt, neutralized, storage time 2 days): 100%
- % relative to initial sample amount (by HPLC) ([2]; Solid Na-salt, neutralized, storage time 5 days): 124%
- % relative to initial sample amount (by HPLC) ([2]; Solid Na-salt, neutralized, storage time 8 days): 106%
- % relative to initial sample amount (by HPLC) ([2]; Solid Na-salt, neutralized, storage time 12 days): 112%
- % relative to initial sample amount (by HPLC) ([2]; Solid Na-salt, neutralized, storage time 16 days): 106%
- % relative to initial sample amount (by HPLC) ([2]; Solid Na-salt, neutralized, storage time 21 days): 101%
- % relative to initial sample amount (by HPLC) ([2]; Solid Na-salt, neutralized, storage time 37 days): 105%
- % relative to initial sample amount (by HPLC) ([2]; Solid Na-salt, neutralized, storage time 49 days): 117%
- % relative to sample amount remaining after 2 days (by HPLC) ([2]; Solid Na-salt, non neutralized, 30-50% RH at room T, storage time 2 days): 100.0%
- % relative to sample amount remaining after 2 days (by HPLC) ([2]; Solid Na-salt, non neutralized, 30-50% RH at room T, storage time 8 days): 46.8%
- % relative to sample amount remaining after 2 days (by HPLC) ([2]; Solid Na-salt, non neutralized, 30-50% RH at room T, storage time 23 days): 12.4%
- Solubility (physchem; pH 7, water, Solubility): > 200 mM
- Solubility (physchem; water, Solubility (mM, as acetophenone equivalents)): ≥ 200 mM
- half-life at 2 mM ([3]; model blood electrolyte solution pH 7.4, 37° C., read-out: estimated half-life (converted)): ~20 h
- Concentration of sodium benzoyl acetate model prodrug in sample ([3]; Time @ 37° C. 0.42): 2660 µM
- Concentration of sodium benzoyl acetate model prodrug in sample ([3]; Time @ 37° C. 2.25): 2300 µM
- Concentration of sodium benzoyl acetate model prodrug in sample ([3]; Time @ 37° C. 3.17): 2440 µM
- Concentration of sodium benzoyl acetate model prodrug in sample ([3]; Time @ 37° C. 4.17): 2400 µM
- Concentration of sodium benzoyl acetate model prodrug in sample ([3]; Time @ 37° C. 6.17): 1710 µM
- Concentration of sodium benzoyl acetate model prodrug in sample ([3]; Time @ 37° C. 8.25): 1960 µM
- Concentration of sodium benzoyl acetate model prodrug in sample ([3]; Time @ 37° C. 10.17): 1690 µM
- Concentration of sodium benzoyl acetate model prodrug in sample ([3]; Time @ 37° C. 12.17): 1590 µM
- Concentration of sodium benzoyl acetate model prodrug in sample ([3]; Time @ 37° C. 13.92): 1520 µM
- Concentration of sodium benzoyl acetate model prodrug in sample ([3]; Time @ 37° C. 17.92): 1430 µM
- Concentration of sodium benzoyl acetate model prodrug in sample ([3]; Time @ 37° C. 21.17): 1310 µM
- Concentration of sodium benzoyl acetate model prodrug in sample ([3]; Time @ 37° C. 24.92): 1020 µM
- Concentration of sodium benzoyl acetate model prodrug in sample ([3]; Time @ 37° C. 31.33): 940 µM
- Concentration of sodium benzoyl acetate model prodrug in sample ([3]; Time @ 37° C. 48.75): 530 µM
- Concentration of sodium benzoyl acetate model prodrug in sample ([3]; Time @ 37° C. 76.33): 200 µM
SMILES: O=C([O-])CC(=O)c1ccccc1.[Na+] [sodium benzoylacetate]
